# Data published in US20230127046A1, “G9a INHIBITOR” (RIKEN, priority 2019, published 2023).
# Target: T1, recombinant human G9a protein (Homo sapiens, UniProt Q96KQ7)
# T1 construct: purchased BPS Bioscience Inc. #51001
# T1 sequence (Q96KQ7 785-1210 limits assumed): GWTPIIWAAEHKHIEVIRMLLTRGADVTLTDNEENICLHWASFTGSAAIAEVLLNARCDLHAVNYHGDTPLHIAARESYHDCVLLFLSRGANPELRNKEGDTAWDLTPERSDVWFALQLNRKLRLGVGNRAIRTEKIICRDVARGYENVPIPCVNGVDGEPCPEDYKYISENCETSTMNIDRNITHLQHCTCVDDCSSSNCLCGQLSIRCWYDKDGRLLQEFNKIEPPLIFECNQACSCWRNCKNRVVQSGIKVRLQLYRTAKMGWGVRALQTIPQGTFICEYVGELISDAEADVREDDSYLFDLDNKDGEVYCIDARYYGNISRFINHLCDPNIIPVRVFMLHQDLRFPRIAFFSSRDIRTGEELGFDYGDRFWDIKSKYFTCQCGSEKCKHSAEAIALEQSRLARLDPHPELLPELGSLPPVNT
# Test: G9a inhibitory activity test (ALPHA)
# Assay type: biochemical
# Details: biotinylated histone H3 peptide (1-21), SAM, read-out: Inhibitory activity (G9a IC50 value)
# In short: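 Human G9a (0.05 to 0.1 nM) in Tris pH 9.0 buffer preincubated with compound 10 min, then biotinylated histone H3 (1-21) peptide and SAM mixed 1:1 from 500 nM and 150 μM solutions, 1 h at room temperature. H3K9me2 detected by AlphaLISA acceptor/streptavidin donor beads; IC50 from percent inhibition relative to no-compound and no-enzyme controls.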
row,IC50,SMILES
1,≥ 200 nM,CCCCC(NC(=O)c1[nH]c2c(c1C)C(=O)CC(C)(C)C2)C(=O)Nc1ccc(OCCN(C)C(=O)OC(C)(C)C)nc1 (stereo not shown) [Example 1-57]
2,≥ 200 nM,CCOc1ccc(NC(=O)C(CCC2CC2)NC(=O)c2[nH]c3c(c2C)C(=O)CC(C)(C)C3)cn1 (stereo not shown) [Example 1-58]
3,< 50 nM,Cc1c(C(=O)NC(CCC2CC2)C(=O)NCc2ccc(CN(C)C)cc2)[nH]c2c1C(=O)CC(C)(C)C2 (stereo not shown) [Example 1-67]
4,≥ 200 nM,CCCCC(NC(=O)c1[nH]c2c(c1C)C(=O)CC(C)(C)C2)C(=O)NCc1cccc2ccccc12 (stereo not shown) [Example 1-49]
5,50 to 200 nM,CCCCC(NC(=O)c1[nH]c2c(c1C)C(=O)CC(C)(C)C2)C(=O)Nc1ccc(OC2CN(C)C2)nc1 (stereo not shown) [Example 1-3]
6,50 to 200 nM,Cc1c(C(=O)NC(CCC2CC2)C(=O)Nc2ccc(N(C)C)nc2)[nH]c2c1C(=O)CC(C)(C)C2 (stereo not shown) [Example 1-74]

# Same assay, conditions: read-out: Inhibitory activity (G9a IC50)
row,SMILES,IC50
1,Cc1c(C(=O)NC(CCC2CC2)C(=O)N2CCc3cc(OCCO)ccc32)[nH]c2c1C(=O)CC(C)(C)C2 (stereo not shown) [Example 1-133],≥ 200 nM
2,"CCCCC(NC(=O)c1[nH]c2c(c1C)C(=O)CC(C)(C)C2)C(=O)NCc1cccc(CN(C)C)n1 (stereo not shown) [Example 4, N-[1-[[6-[(dimethylamino)methyl]pyridine-2yl]methylamino]-1-oxohexan-2-yl]-3,6,6-trimethyl-4-oxo-5,7-dihydro-1H-indole-2-carboxamide]",≥ 200 nM
3,"CCCC[C@H](NC(=O)c1[nH]c2c(c1C)C(=O)CC(C)(C)C2)c1nc2ccc(OCCO)cc2[nH]1 [Example 36, (S)-N-(1-(6-(2-hydroxyethoxy)-1H-benzo[d]imidazol-2-yl)pentyl)-3,6,6-trimethyl-4-oxo-4,5,6,7-tetrahydro-1H-indole-2-carboxamide]",≥ 200 nM

# Second part, the molecule after the results:
row,IC50,SMILES
1,< 50 nM,"CCCCC(NC(=O)c1[nH]c2c(c1C)C(=O)CC(C)(C)C2)C(=O)Nc1cccc(CN(C)C)c1 (stereo not shown) [Example 18-1, N-[1-[3-[(dimethylamino)methyl]anilino]-1-oxohexan-2-yl]-3,6,6-trimethyl-4-oxo-5,7-dihydro-1H-indole-2-carboxamide]"
2,≥ 200 nM,"CCCCC(NC(=O)c1ccc(N2CCN(C)CC2)cc1C)C(=O)Nc1ccc(OC2CCN(C)CC2)nc1 (stereo not shown) [Example 11-1, 2-methyl-4-(4-methylpiperazin-1-yl)-N-[1-[[6-(1-methylpiperidin-4yl)oxypyridin-3-yl]amino]-1-oxohexan-2-yl]benzamide]"
3,≥ 200 nM,CCCC[C@H](NC(=O)c1[nH]c2c(c1C)C(=O)CC(C)(C)C2)C(=O)NCc1ccc(N2CCN(CC)CC2)cc1 [Example 22-3]
4,< 50 nM,COc1ccc(NC(=O)C(CCC2CC2)NC(=O)c2ccc(Nc3ccncc3)cc2C(F)(F)F)cn1 (stereo not shown) [Example 6-78]
5,50 to 200 nM,CCCCC(NC(=O)c1[nH]c2c(c1C)C(=O)CC(C)(C)C2)C(=O)Nc1ccc(OCCN)nc1 (stereo not shown) [Example 24-4]
6,< 50 nM,Cc1c(C(=O)NC(CCC2CC2)C(=O)N(C)Cc2ccc(CN(C)C)cc2)[nH]c2c1C(=O)CC(C)(C)C2 (stereo not shown) [Example 6-20]
7,< 50 nM,CN1CCC(Oc2ccc(NC(=O)C(CCC3CC3)NC(=O)c3ccc(Nc4ccncc4)cc3)cn2)CC1 (stereo not shown) [Example 6-87]
8,< 50 nM,CCCCC(NC(=O)c1[nH]c2c(c1C)C(=O)CC(C)(C)C2)C(=O)NCc1ccc(CNC(C)(C)C)cc1 (stereo not shown) [Example 18-4]
9,≥ 200 nM,CCCC[C@H](NC(=O)c1[nH]c2c(c1CCC)C(=O)CC(C)(C)C2)C(=O)Nc1ccccc1 [Example 6-37]
10,< 50 nM,CCCC[C@H](NC(=O)c1[nH]c2c(c1C)C(=O)CC(C)(C)C2)C(=O)N[C@@H](CC)c1ccccc1 [Example 6-38]
11,50 to 200 nM,CCCC[C@H](NC(=O)c1[nH]c2c(c1C)C(=O)CC(C)(C)C2)c1nc2ccc(OCCCN3CCCCC3)cc2[nH]1 [Example 34-2]
12,50 to 200 nM,CCCCC(NC(=O)c1[nH]c2c(c1C)C(=O)CC(C)(C)C2)C(=O)Nc1ccc(OC2CNC2)nc1 (stereo not shown) [Example 26-1]
13,≥ 200 nM,CCCC[C@H](NC(=O)c1[nH]c2c(c1C)C(=O)CC(C)(C)C2)C(=O)NCc1ccc(N2CCN(CC(C)C)CC2)cc1 [Example 22-1]
